Values quoted from earlier work, collected in patent US7323174B1, “Modulation of immune response and methods based thereon” (Arizona Board of Regents on behalf of The University of …, priority 2000, dated 2008).
No end group written: not given here.

Columns and labels:
[1] = test system: Th1 and Th2 cytokine production; settings: individuals infected with an immunodeficiency-type retrovirus; described in U.S. Pat. No. 5,911,990
[2] = test system: immunodeficiency-type retrovirus; settings: individuals infected with an immunodeficiency-type retrovirus; described in U.S. Pat. No. 5,911,990

In the case of CKPISGHNSLFWYRQT [SEQ ID NO:1], the “aberrant Th1 and Th2 cytokine production” value [1] is given as “normalize aberrant Th1 and Th2 cytokine production” and the “progression to AIDS” value [2] is given as “suppress progression to AIDS”.
